In general, IC50 refers to the concentration that inhibits the measured activity by half. Low values mean greater potency in that assay, high ones weaker potency in that assay.

The record followed here is patent US9902722B2, “Biaryl kinase inhibitors” (BRISTOL-MYERS SQUIBB COMPANY, priority 2014, dated 2018).

In the experiment the target is GST-Xa-hAAK1 (Homo sapiens (Human), UniProt Q2M2I8). The experiment is described as follows: AAK1 Kinase Assay.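 Note: each compound tested across an eleven-point concentration series, with IC50 obtained through non-linear regression fitting.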 It counts as biochemical. To be noted: bacterially expressed GST-Xa-hAAK1 3.5 nM; ATP 22 μM; peptide substrate 1.5 μM; 3 hours at room temperature; Caliper LabChip 3000.
GST-Xa-hAAK1, sequence (Q2M2I8 whole entry): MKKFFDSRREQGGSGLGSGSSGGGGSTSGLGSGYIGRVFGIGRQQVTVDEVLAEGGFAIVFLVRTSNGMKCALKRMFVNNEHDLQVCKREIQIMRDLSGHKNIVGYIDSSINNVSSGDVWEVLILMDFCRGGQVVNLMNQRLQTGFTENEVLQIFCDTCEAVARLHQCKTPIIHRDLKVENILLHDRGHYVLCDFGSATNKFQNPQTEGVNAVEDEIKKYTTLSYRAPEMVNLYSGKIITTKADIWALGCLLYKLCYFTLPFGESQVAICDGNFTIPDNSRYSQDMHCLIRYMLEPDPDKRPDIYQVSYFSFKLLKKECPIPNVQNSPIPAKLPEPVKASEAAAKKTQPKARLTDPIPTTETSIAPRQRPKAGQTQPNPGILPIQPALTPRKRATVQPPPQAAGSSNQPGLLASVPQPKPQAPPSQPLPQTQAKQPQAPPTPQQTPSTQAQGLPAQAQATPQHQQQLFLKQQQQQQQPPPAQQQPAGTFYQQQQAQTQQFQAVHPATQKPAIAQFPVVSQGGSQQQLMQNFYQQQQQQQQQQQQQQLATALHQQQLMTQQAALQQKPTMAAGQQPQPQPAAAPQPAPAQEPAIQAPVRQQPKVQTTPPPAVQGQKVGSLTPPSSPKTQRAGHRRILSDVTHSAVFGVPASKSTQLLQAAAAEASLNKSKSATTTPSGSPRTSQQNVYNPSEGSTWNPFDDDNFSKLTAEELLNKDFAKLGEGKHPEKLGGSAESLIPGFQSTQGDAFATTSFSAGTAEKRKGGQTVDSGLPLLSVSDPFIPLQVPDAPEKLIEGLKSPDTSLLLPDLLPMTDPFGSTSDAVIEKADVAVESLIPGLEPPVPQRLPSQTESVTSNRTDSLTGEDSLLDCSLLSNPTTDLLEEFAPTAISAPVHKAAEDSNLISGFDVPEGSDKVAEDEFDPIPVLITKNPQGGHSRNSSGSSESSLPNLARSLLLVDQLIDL
Procedure: The assays were performed in U-bottom 384-well plates. […] The reactions were initiated by the combination of bacterially expressed, GST-Xa-hAAK1 with substrates and test compounds. The reactions were incubated at room temperature for 3 hours and terminated by adding 60 μl of 35 mM EDTA buffer to each sample. […] Compounds were dissolved at 10 mM in dimethylsulfoxide (DMSO) and evaluated at eleven concentrations. IC50 values were derived by non-linear regression analysis.
Consider `Cc1cc(-c2ccnc(F)c2)cnc1OC[C@@](C)(N)CC(C)C` [Example 95, (S)-1-((2′-fluoro-5-methyl-[3,4′-bipyridin]-6-yl)oxy)-2,4-dimethylpentan-2-amine], for which inhibition was half-maximal at 39 nM (IC50).

For `CC(=O)Nc1cc(-c2ccc(OC[C@@](C)(N)CC(C)C)c(C(F)(F)F)c2)c(CO)cn1` [Example 34, (S)—N-(4-(4-((2-amino-2,4-dimethylpentyl)oxy)-3-(trifluoromethyl)phenyl)-5-(hydroxymethyl)pyridin-2-yl)acetamide], the IC50 is 15 nM.

On to `COC(=O)Nc1cc(-c2ccc(OCC(C)(N)CC(C)C)c(C)c2)ccn1` (stereo not drawn) [Example 30, methyl (4-(4-((2-amino-2,4-dimethylpentyl)oxy)-3-methylphenyl)pyridin-2-yl)carbamate], for which inhibition was half-maximal at 1.4 nM (IC50).

In turn, `CC(C)C[C@@](C)(N)COc1cnc(-c2ccnc(C(F)F)c2)cc1C(F)F` [Example 175, (R)-1-((2′,4-bis(difluoromethyl)-[2,4′-bipyridin]-5-yl)oxy)-2,4-dimethylpentan-2-amine] yielded an IC50 of 17 nM.

On to `COC(=O)Nc1cc(-c2ccc(OC[C@@](C)(N)CC(C)C)c(C(F)(F)F)c2)ccn1` [Example 20, (S)-methyl (4-(4-((2-amino-2,4-dimethylpentyl)oxy)-3-(trifluoromethyl)phenyl)pyridin-2-yl)carbamate], for which the IC50 was 0.34 nM.

As to `CC(C)C[C@](C)(N)COc1ncc(-c2ccnc3cc(C#N)ccc23)cc1F` [Example 99, (S)-4-(6-((2-amino-2,4-dimethylpentyl)oxy)-5-fluoropyridin-3-yl)quinoline-7-carbonitrile], the half-maximal inhibitory concentration (IC50) was 31 nM.

Take `COC(=O)Nc1cc(-c2ccc(OC[C@@](C)(N)CC(C)C)c(C)n2)ccn1` [Example 64, (S)-methyl (5-((2-amino-2,4-dimethylpentyl)oxy)-6-methyl-[2,4′-bipyridin]-2′-yl)carbamate]: the half-inhibitory concentration (IC50) turned out to be 1.1 nM.

Regarding `CC(C)C[C@](C)(N)COc1ccc(-c2ccnc3cc(Cl)ccc23)cc1C(F)(F)F` [Example 88, (S)-1-(4-(7-chloroquinolin-4-yl)-2-(trifluoromethyl)phenoxy)-2,4-dimethylpentan-2-amine], the IC50 stood at 0.46 nM.

Take `COC(=O)Nc1cc(-c2ccc(OC[C@@](C)(N)CC(C)C)c(CN(C)C)c2)ccn1` [Example 112, (S)-methyl (4-(4-((2-amino-2,4-dimethylpentyl)oxy)-3-((dimethylamino)methyl)phenyl)pyridin-2-yl)carbamate]: the IC50 turned out to be 970 nM.

Consider `Cc1cc(-c2ccc(OC[C@@](C)(N)CC(C)C)c(C(F)(F)F)c2)ccn1` [Example 45, (S)-2,4-dimethyl-1-(4-(2-methylpyridin-4-yl)-2-(trifluoromethyl)phenoxy)pentan-2-amine], for which half-maximal inhibition (IC50) was put at 1.2 nM.

`COC(=O)Nc1cc(-c2cc(C)c(OC[C@@](C)(N)CC(C)C)c(C)n2)ccn1` [Example 213, (S)-methyl (5-((2-amino-2,4-dimethylpentyl)oxy)-4,6-dimethyl-[2,4′-bipyridin]-2′-yl)carbamate] yielded an IC50 of 22 nM.

In the case of `Cc1cc(-c2ccnc3cc(Cl)ccc23)cnc1OC[C@@](C)(N)CC(C)C` [Example 225, (S)-1-((5-(7-chloroquinolin-4-yl)-3-methylpyridin-2-yl)oxy)-2,4-dimethylpentan-2-amine], the IC50 was 0.74 nM.

The compound `CC(C)C[C@](C)(N)COc1ccc(-c2ccncc2)cc1C(F)(F)F` [Example 43, (S)-2,4-dimethyl-1-(4-(pyridin-4-yl)-2-(trifluoromethyl)phenoxy)pentan-2-amine] gave an IC50 of 0.64 nM.

In the case of `Cc1cc(-c2ccnc3cc(F)ccc23)ncc1OC[C@@](C)(N)CC(C)C` [Example 227, (S)-1-((6-(7-fluoroquinolin-4-yl)-4-methylpyridin-3-yl)oxy)-2,4-dimethylpentan-2-amine], the IC50 came out at 0.93 nM.

`CC(=O)Nc1cc(-c2ccc(OC[C@@](C)(N)CC(C)C)c(C#N)c2)ccn1` [Example 21, (S)—N-(4-(4-((2-amino-2,4-dimethylpentyl)oxy)-3-cyanophenyl)pyridin-2-yl)acetamide]: half-maximal inhibition (IC50) required 0.74 nM.
